We go through two molecules from US20040043462A1, “Chamber for in vivo screening of angiogenesis and tumor growth modulating compounds” (priority 2003, published 2004).

Entries after “also recorded” stand apart in the source; their conditions may differ.

For data set [1], the system named is wound healing response (granulation tissue, neovascularization) in F-ZC. In words: Fibrin Z-chamber (F-ZC) wound healing assay, systemic SU5416 treatment. The class given is in vivo, Fischer 344 rats. As to conditions: for residual D-dimer retention: SU5416 vs control (FIG. 16); for body weight loss: SU5416 20 mg/kg, F-ZC implantation, 10-12 days, vs control (FIG. 13). The protocol:
(§1) Schedule and Dose of Drug Administration.
Fibrin Z-Chambers (F-ZC): In accordance with the present invention, F-ZC were employed in a fibrin gel based in vivo assay. In F-ZC, fibrinogen and thrombin are added to a dual porous chamber through a port and chambers are then implanted in the subcutaneous tissue of the rats and harvested at day 12 post-implantation to assess the wound healing response generated due to presence of fibrin. These chambers are constructed from customized PLEXIGLAS® rings with internal diameter of 10 mm and have an access port drilled on the side. The two open surfaces are covered by nylon mesh (pore size 180 microns, # NY8H04700, Millipore, Mass.) glued to the rings. Fibrinogen (# 341578, CalBiochem, La Jolla, Calif.) was prepared in DMEM (# 11995-065, Gibco BRL, Rockville, Md.) at a concentration of 4 mg/ml and was converted to fibrin by addition of thrombin (#605160, CalBiochem, La Jolla, Calif.) inside the chambers.
Fischer 344 rats were anesthetized, hair removed using the clippers and the surface was surgically prepared. Two small midline skin incisions were made in the dorsal region about 4 cm apart. Fascia was blunt dissected and small pockets were created on both sides along the midline incision. Thus, four F-ZCs were implanted per animal.
Quantitation of Immunohistochemistry. Microvessel density (MVD) was calculated as described by Weidner (Weidner, N., et al., J Natl Cancer Inst (1992) 84(24):1875-87). Briefly, three hot spots or areas with highest visible blood vessels density (marked by the vessel marker) per sample section were selected and number of blood vessels counted at a high power field (400×). The data was then pooled for the control and treated tissues to arrive at the mean values for each group. Collagen was semi-quantitatively estimated on a scale of 0-4. Zero was described as negligible staining, 1 as weak, 2 as moderate, 3 as strong and 4 as complete staining as observed in dermis.
D-Dimer Measurements. The MINIQUANT™ D-Dimer (Cat # 1447, Biopool AB of Umea, Sweden) assay was used to measure residual D-Dimer in the chamber content lysates generated as detailed above. […] The measurements were carried out in duplicate. Each measurement is from pooled tissue for the treatment and control groups.

The test system is the same in data set [2]. The data set is described as above. The class given is in vivo, Fischer 344 rats. As to conditions: SUGEN 5416 20 mg/kg, control about 45, p=0.0009.
In a further data set the test system is TGF β1. Put plainly: TGF β1 ELISA on F-ZC tissue lysates. The class given is in vivo, Fischer 344 rats. The protocol: as §1
TGF β1 ELISA. Active TGF β1 ELISA was carried out in triplicate using DUOSET® kit (DY240, Genzyme Corporation, Cambridge, Mass.) as described previously (Danielpour, D., J Immunol Methods (1993) 158(1):17-25) with tissue lysates from chamber contents generated as detailed above. Latent form of […] was converted to immunoreactive form to ascertain total […] content. The data is shown as pg per mg of protein in the tissues.

The subject of data set [3] is tumor cells embedded in fibrin gel (T-ZC). Put plainly: Tumor cell-containing chambers (T-ZC) implanted in animals, systemic SUGEN 5416 treatment. The class given is in vivo. The method, then:
A tumor cell chamber, or tumor Z-chamber (T-ZC) is prepared by adding tumor cells to the fibrinogen solution before adding the solution to the chamber. The tumor cells are embedded in fibrin gel. Implantation is accomplished by making two 2 cm long incisions on the backs of the animals, followed by making blunt dissections on both sides to establish a pocket in the subcutaneous space. The chambers are inserted into these pockets. Clips are used to close the incision in rats and sutures are used for mice. A topical antibiotic, such as that sold under the registered trademark NEOSPORIN® by Glaxo-Wellcome, Inc., is applied over the incision. To harvest the chambers, a long incision is made on the backs of the animals. The surrounding fascia is observed and noted. The chambers are pushed from outside the animal and pulled out. Pictures are taken at this stage to observe differences, if any, between tissue within and encompassing the chamber and the surrounding tissue. The mesh and issue agglomerated thereon are cut from the chamber with scalpel (preferably a #11 blade) and then processed in accordance with a desired analysis approach.

The subject of data set [4] is wound healing response (granulation tissue) in fibrin-containing chambers. In words: F-ZC wound healing response with chamber administration of angiostatin. The class given is in vivo. The method, then: FIGS. 20A and 20B are photographs showing gross examination of fibrin-containing chambers of the present invention in which angiostatin was administered in laboratory animals in accordance with techniques described herein above for Laboratory Examples 1-9. […] Fibrin is inherently pale yellow in color and lack of blood vessels in angiostatin treated chambers results in the paler appearance of the chambers.
FIGS. 20C and 20D are photomicrographs showing depth (represented by line with arrowheads at each end) of granulation tissue developed inside fibrin-containing chambers of the present invention. Depth granulation was used as a measure for the healing response.
Scale=depth of granulation tissue (×10 microns).

The mark [5] stands for this setting: Table 1, SU5416 vs control, n = 10.

Consider `Cc1cc(C)c(C=C2C(=O)Nc3ccccc32)[nH]1` [SU5416, 3-(2,4-Dimethylpyrrol-5-yl)methylene-2-indolinone], for which, in data set [1] (F-ZC at harvest day 12, SU5416 vs controls (FIGS. 17A, 17B)), the “gross appearance of chambers (influx of blood vessels)” value was “distinctly paler color; also recorded: paler in color”. In data set [1] (F-ZC granulation tissue, SU5416 20 mg/kg IP, p=0.0006, 20 mg/kg), the “collagen deposition (MT stain)” value is “distinctly decreased collagen deposition; also recorded: collagen was decreased”. Besides, the “reduction in microvessel density vs controls” value in data set [1] (F-ZC, SU5416 20 mg/kg IP, day 12, p=0.0009) amounted to 10%. Besides, the “reduction of granulation tissue (depth) vs controls” value in data set [1] (F-ZC, SU5416 20 mg/kg IP, day 12, p=0.0076) was 45%. Further, the granulation tissue formation entry in data set [1] (F-ZC, SU5416 20 mg/kg vs control, listed as SUGEN 5416) was “inhibited granulation tissue formation”. For the same molecule, the “decrease in collagen deposition (semi-quantitative, MT)” value in data set [1] (F-ZC, SU5416 treated vs controls) is reported as above 70%. The “residual D-dimer retention” value in data set [1] (F-ZC) is on record as “remained elevated”; in data set [1] (F-ZC, listed as SUGEN 5416), “increase in residual D-dimer retention”; in data set [3] (T-ZC, SUGEN 5416 systemic vs control (FIG. 12)) it was “more residual D-dimer retention”. In data set [1] (F-ZC, SUGEN 5416 20 mg/kg vs control), the neovascularization result was “inhibited neovascularization”. For the same molecule, the “average depth of granulation tissue” value in data set [1] (F-ZC, SUGEN 5416 20 mg/kg, magnification 10×, control about 45 mm, p=0.0076) was “about 25 mm”. Moreover, in data set [1] (F-ZC, SUGEN 5416, after 10-12 days of implantation, control about 4,000 ng/ml), the “D-dimer levels in chambers” value was “about 13,000 ng/ml”. For the same molecule, the body weight loss entry in data set [1] (20 mg/kg) is “maintained their pre-treatment weights”; in data set [1] (listed as SUGEN 5416) it was “no significant body weight loss”; in data set [3] (SUGEN 5416 20 mg/kg systemic, T-ZC implantation, vs control animals (FIG. 9), 20 mg/kg), “no significant body weight loss; also recorded: no significant body weight lost”. For the same molecule, the D-Dimer in data set [1] (Table 1, F-ZC tissue lysates (pooled), SU5416, control 4100 ± 100) is 185 ± 20 ng/mL. In addition, in data set [1] (Table 1, F-ZC, SU5416 20 mg/kg IP, day 12, ± standard error of mean, control 466.7 ± 51.9), the Granulation is listed as 256.8 ± 42.9. Further, in data set [1] (Table 1, F-ZC, SU5416, semi-quantitative scale of 0-4, ± SEM, control 1.75 ± 0.25), the Collagen was 0.5 ± 0.18. The Microvessel in data set [1] (Table 1, F-ZC, SU5416, ± SEM, control 28.17 ± 0.42) came to 26.25 ± 0.53. Moreover, the “Difference, Microvessel” value in data set [1] (Table 1, SU5416 vs control) is given as 10%, p = 0.006,. Besides, the “Difference, D-Dimer” value in data set [1] (setting [5]) is recorded as 96%, n = 10. For the same molecule, the “Difference, Collagen” value in data set [1] (Table 1, SU5416 vs control, p = 0.001) is 72%, p = 0.001,. In data set [1] (Table 1, SU5416 vs control, p = 0.006), the “Difference, Granulation” value is listed as 45%, p = 0.006,. For the same molecule, the “average MVD at 200× magnification” value in data set [2] is “about 30”. In the data set on TGF β1 (F-ZC tissue, SU5416 20 mg/kg IP vs controls), the “reduction in active TGF β1 level” value came to 90%. Moreover, the “total TGF β1” value with TGF β1 (F-ZC tissue, SU5416 treated vs controls) is “increased”. The “Active TGF β1” value in the data set with TGF β1 (Table 1, F-ZC tissue lysates, SU5416, control 1.45 ± 0.1) was 0.11 ± 0.05 pg per mg of protein. Moreover, the “Latent TGF β1” value with TGF β1 (Table 1, F-ZC tissue lysates, SU5416, control 7.72 ± 0.5) is on record as 11.85 ± 0.8 pg per mg of protein. In addition, the “Difference, Active TGF β1” value in the data set with TGF β1 (setting [5]) is on record as 93%, n = 10. In addition, in the data set on TGF β1 (setting [5]), the “Difference, Latent TGF β1” value is listed as 35%, n = 10. Besides, the tumor growth delay result in data set [3] (SUGEN 5416 20 mg/kg systemic, T-ZC, p<0.0001 (FIG. 10)) is given as “significant tumor growth delay”. Besides, in data set [3] (SUGEN 5416 20 mg/kg systemic, T-ZC, control about 90% (FIG. 10)), the “increase in tumor volume” value is listed as 40%. Besides, in data set [3] (T-ZC, SUGEN 5416 20 mg/kg, p=0.11 (FIG. 11)), the “microvessel density (MVD) change” value is listed as “did not change”. Moreover, the “MVD per high power (200×) focal (HPF)” value in data set [3] (T-ZC, SUGEN 5416 20 mg/kg, control about 15 (FIG. 11)) is “about 13”.
For angiostatin, the healing response result in data set [4] (1 μM angiostatin in chamber) was “reduction in healing response”. Besides, the “gross appearance of chambers (influx of blood vessels)” value in data set [4] (1 μM angiostatin in chamber vs controls (FIGS. 20A, 20B)) is given as “paler in color”. Besides, the “granulation tissue formation (depth)” value in data set [4] (1 μM angiostatin in chamber vs controls (FIGS. 20C, 20D, 21)) is “granulation tissue in controls (FIG. 20C) is distinctly more than angiostatin treated chambers; also recorded: inhibited granulation tissue formation”.
